Here are results for 1 compound from PMC3950497 (Advances in Pharmacological Sciences, 2014).

For data set [1] the following is noted: water and aqueous alcohol; cited from earlier work.
The test system of data set [2] is synaptic transmission. Set-up: method as in PMID 1652103. The conditions noted are these: at low concentration; cited from earlier work.
The subject of data set [3] is pseudocholinesterase. Also on record: method as in ref 11 = [11]; 11 Berezhinskaya VV Nikittna SS Trutneva EA Medicinal plants pharmacology and chemotherapy Trudy Vsesoyuznogo Nauchno-Issledovatel'skogo Instituta Lekarstvenny Rastenii 1971 14 66 69. The note with it: in vitro; cited from earlier work.
The conditions of data set [4]: without side effects such as α- or β-adrenergic blockade, sedative or depressant effect; cited from earlier work.
The conditions of data set [5]: dichloromethane and hexane as extracting solvents.
Data set [6] is classed as in vivo, rabbit. The conditions noted are these: i.m. injection, plasma, from 15 min, extrapolated to infinity. The method, then: The selected rabbits were administrated intramuscular with stephaglabrine sulfate at doses 0.1 mg/kg as it was established before. Each animal received a single dose.
Quantitative analysis was acquired in SRM (selected reactions monitoring) mode on Agilent 6490 triple quadrupole mass spectrometer (Agilent, USA) operated in the positive mode and equipped with Jet Stream ESI ion source. Stepharine was detected in the scheduled selected reaction monitoring (SRM) with unit resolution at both first (Q1) and third (Q3) quadrupoles. The retention time point of stepharine was determined as 9.8 with isolation width of 1 minute for the scheduled SRM method application. The optimal conditions of the analysis were achieved as follows: capillary voltage was −4500 V, nozzle voltage was set at −1200 V, flow rate of drying gas (N2) was 16 L/min, flow rate of sheath gas (N2) was 8 L/min, temperature of drying gas was set at 340°C, temperature of sheath gas was set at 290°C, and nebulizer gas was operated at 20 psi. The transitions for protonated stepharine [M+H]^+ 298.4 → 161.2, 192.1, 238.2 were selected for SRM analysis. The isolation window for the fragment ions was set at 0.27 amu, the optimum fragmentor voltage was adjusted to 310 V and collision energy −19 eV. All the samples including calibration points were analyzed in three replications. 30 μL of the samples was injected and loaded on chromatographic column. Calibration was performed on standard samples solution prepared in 20% acetonitrile with concentration of stepharine from 10^−4 μg/mL to 100 μg/mL. Chromatographic separation was performed on Thermo Hypersil-Keystone ODS column (Thermo Scientific, USA) 100 × 2.1 mm, 5 μm particle size, at flow rate of 200 μL/min and with the following elution conditions: loading onto the column at maintained 20% of mobile phase B for 3 minutes, increasing the gradient to 50% of B at 5 minutes following increasing the gradient to 100% of mobile phase B at 15 minutes. The column was washed and maintained at 100% mobile phase B from 15 to 22 minutes and the composition was decreased to 20% of solvent B at 23 minute. The column was reequilibrated at starting conditions of solvent A-solvent B system ([…], v/v) for 10 minutes at flow 200 μL/min.
0.5 mL of blood samples from each animal was collected from ear vein in the tubes with EDTA before administration and at 15, 30, 60, 90, 120, 180, 480, 720, and 1440 minutes after drug ingestion. Blood samples were immediately put on ice and centrifuged at 5000 g for 10 minutes at 4°C within one hour after blood collection. The obtained plasma was placed in sterile tube and kept at −20°C until analysis.
Plasma proteins were precipitated with acetonitrile. For this purpose, two volumes of acetonitrile were added to 100 μL of rabbit plasma into 1.5 mL plastic tube and 30% ammonia hydroxide was added to adjust the pH to 10. After vortex-mixing for 15 minutes at ambient temperature one volume of chloroform was added three times consequently for 2 hours and incubated at 30°C under regular stirring at 900 rpm at each occasion. The first fraction of upper organic layer was collected after 2 hours of incubation, the second and the third fractions of chloroform extract were collected after additional 30 and 60 minutes of incubation, respectively. The collected fractions were combined and transferred to a new tube and dried under vacuum at 30°C. The resulting pellet was resuspended in 100 μL of 20% water-acetonitrile solution and centrifuged at 14000 rpm for 15 minutes immediately before use. The obtained solution was used for LC-MS analysis. […]

The test system of data set [7] is denervated extremities at traumatic injuries of sciatic nerve. Also on record: method as in ref 4, 5 = [4]; 4 Kuznecov J Arzamascev E Malinovskaja C Pharmacological properties and toxicologic characteristics of stefaglabrin sulphate Medicines Plant Origin in Modern Therapy 1989 2 p. 71 || [5]; 5 Schelchkova II Il'inskaya TN Kuzovkov AD The alkaloids of Stephania glabra Chemistry of Natural Compounds 1965 1 4 210 212. The conditions noted are these: rabbits, intramuscular injection 0.1 mg/kg; cited from earlier work.

The test system of data set [8] is cholinesterase. Set-up: method as in ref 11 = [11]; 11 Berezhinskaya VV Nikittna SS Trutneva EA Medicinal plants pharmacology and chemotherapy Trudy Vsesoyuznogo Nauchno-Issledovatel'skogo Instituta Lekarstvenny Rastenii 1971 14 66 69. The note with it: in vitro; cited from earlier work.

Counter-ions that a name gives are not always drawn. Like-named read-outs stand apart in the source and are kept apart here.

As for `COc1cc2c3c(c1OC)C1(C=CC(=O)C=C1)C[C@H]3NCC2` [stephaglabrine sulfate, Stephaglabrine sulfate], in data set [1], the solubility entry is “soluble in water and aqueous alcohol”. Further, the “frequency of miniature endplate potential” value in data set [2] was “diminishes frequency of miniature endplate potential”. Besides, in data set [3], the inhibition of pseudocholinesterase result is listed as “inhibits”. Besides, the antihypertensive activity entry in data set [4] is on record as “possesses antihypertensive activity”. Further, the “solubility in highly nonpolar solvents” value in data set [5] is given as “low solubility”. Further, the AUC15 in data set [6] (rabbit ST01, dosage 0.50 mg (0.1 mg/kg)) is 1661 ng∗min/mL; in data set [6] (rabbit ST02, dosage 0.50 mg (0.1 mg/kg)) it was 3187 ng∗min/mL; in data set [6] (rabbit ST04, dosage 0.45 mg (0.1 mg/kg)) it was 2516 ng∗min/mL; in data set [6] (rabbit ST05, dosage 0.50 mg (0.1 mg/kg)) it was 2217 ng∗min/mL; in data set [6] (rabbit ST06, dosage 0.50 mg (0.1 mg/kg)), 2769 ng∗min/mL. In data set [7], the “intensity of trophic disturbances of denervated extremities” value is “significantly decreases intensity of trophic disturbances”. Further, the inhibition of cholinesterase entry in data set [8] is given as “inhibits”.
